The source made the active and inactive calls. Cut-off read from the data, not from the text of the source, for most assays here: actives have a measured EC50 and inactives only a lower limit.
Legend:
[1] = Luminescence Cell-Based Dose Retest to Confirm Inhibitors of Cancer Stem Cells. [Related pubchem assays (depositor defined):AID2717, AID2721]; assay type: functional; conditions: Homo sapiens
[2] = molecular target: T1, Heat shock factor protein 1 (Mus musculus, UniProt P38532); test: enhancement of HSF1-driven luciferase signal – cell-based, NIH3T3, luminescence, dose retest, confirmation (AID 435004); assay type: functional;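 note: stress induced by proteasome inhibitor MG132 added 30 min after compound; luciferase reporter driven by HSF1 response element in NIH3T3 cells; actives raise luminescence as potentiators of the MG132 stress response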
T1 sequence (P38532 whole entry): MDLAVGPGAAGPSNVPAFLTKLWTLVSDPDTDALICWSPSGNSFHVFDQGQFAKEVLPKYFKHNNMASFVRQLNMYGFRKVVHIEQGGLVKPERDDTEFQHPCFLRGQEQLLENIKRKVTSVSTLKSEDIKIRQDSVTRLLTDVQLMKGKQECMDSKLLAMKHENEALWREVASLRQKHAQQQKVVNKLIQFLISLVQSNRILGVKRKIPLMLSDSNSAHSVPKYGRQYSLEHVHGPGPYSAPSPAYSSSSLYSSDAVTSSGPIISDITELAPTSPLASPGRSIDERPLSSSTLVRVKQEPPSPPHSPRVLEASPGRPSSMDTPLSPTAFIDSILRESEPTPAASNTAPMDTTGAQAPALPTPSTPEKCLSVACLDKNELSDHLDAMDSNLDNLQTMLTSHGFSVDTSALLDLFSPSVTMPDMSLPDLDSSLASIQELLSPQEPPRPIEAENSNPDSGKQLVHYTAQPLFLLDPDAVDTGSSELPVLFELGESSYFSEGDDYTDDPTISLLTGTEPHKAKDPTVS

[3] = reduction of Shn3 3'UTR-driven luciferase in osteoblasts – cell-based, Clone20 osteoblasts, firefly luciferase, cherry-picked, dose response (AID 624132); assay type: functional;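 note: firefly luciferase luminescence from reporter carrying the Shn3 3'UTR in osteoblasts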
[4] = luciferase reporter signal suppression in cells – H4 neuroglioma cells, luminescence, dose response (AID 1990); assay type: functional, cell-based
[5] = Luminescence Cell-Based Dose Response HTS to Identify Inhibitors of 5'UTR Stem-Loop Driven Prion Protein mRNA Translation in H4 Neuroglioblastoma Cells. [Related pubchem assays: 1827 (Project Summary), 1813 (Primary HTS)]; assay type: functional
[6] = alpha-synuclein stem-loop luciferase translation blockers – H4 neuroglioma cells, luminescence, confirmation (AID 1988); assay type: functional, cell-based
INS1 = test: INS-1E survival protection against cytokine death – cell-based, luminescence, retest, dose response (AID 449756); assay type: functional; conditions: Rattus norvegicus;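 note: cell death triggered by IL-1 beta plus TNF-alpha plus IFN-gamma mixture; protective hits raise ATP signal compared with cytokine alone wells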
[7] = molecular target: Luciferin 4-monooxygenase (Photinus pyralis, UniProt P08659); test: inhibition of purified Photinus pyralis luciferase – biochemical, luminescence, dose response (AID 1891)
Sequence of Luciferin 4-monooxygenase (P08659 whole entry): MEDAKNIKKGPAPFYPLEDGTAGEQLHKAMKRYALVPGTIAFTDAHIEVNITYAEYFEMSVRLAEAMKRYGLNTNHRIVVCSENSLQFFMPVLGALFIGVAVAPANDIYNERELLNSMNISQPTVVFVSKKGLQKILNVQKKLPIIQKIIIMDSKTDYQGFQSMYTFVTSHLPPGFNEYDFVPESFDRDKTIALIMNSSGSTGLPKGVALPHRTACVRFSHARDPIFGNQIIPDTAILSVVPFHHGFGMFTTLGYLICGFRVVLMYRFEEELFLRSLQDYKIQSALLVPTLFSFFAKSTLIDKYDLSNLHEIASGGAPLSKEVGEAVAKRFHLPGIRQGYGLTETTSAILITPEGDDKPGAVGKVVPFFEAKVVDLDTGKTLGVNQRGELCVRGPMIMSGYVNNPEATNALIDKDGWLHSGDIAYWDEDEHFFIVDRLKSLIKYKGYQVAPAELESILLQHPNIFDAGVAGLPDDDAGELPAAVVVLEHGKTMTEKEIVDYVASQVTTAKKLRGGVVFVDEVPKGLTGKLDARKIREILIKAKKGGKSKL

[8] = Luminescence Cell-Based Dose Confirmation HTS to Identify Inhibitors of Platelet Dense Granule Release. [Related pubchem assays: 1663 (Primary HTS), 1678 (Summary of Project)]; assay type: functional
H9c2 = test: cells; assay type: functional, cell-based; conditions: Rattus norvegicus, H9c2, Myocardium;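 note: confirmatory concentration-response retest of ultra-high-throughput screening hits for modulation of myocardial damage; cell death induced by hydrogen peroxide oxidative stress; compound pretreatment for 60 min then peroxide exposure for 2 h; potency is for protecting the cells against peroxide damage rather than for killing them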

CC(C)(C)c1ccc(Oc2ccc(NC(=O)c3cccs3)cn2)cc1
AC50 [1]: 3.9 µM (active)

Cc1ccc(NC(=O)c2cc3c(=O)oc4ccccc4c3s2)nc1
EC50 [2]: > 260 µM (inactive)

CCN(CC(=O)Nc1ccc(NC(C)=O)cc1)Cc1c(O)ccc2cc(Br)ccc12
EC50 [2]: 8.46 µM (active)

CCS(=O)(=O)c1ccc2oc(SCC(=O)N3CCCCC3)nc2c1
AC50 [3]: > 70 µM (inactive)

CN(C)c1nc(NC(C)(C)C)nc(SCC(=O)Nc2ccccc2)n1
EC50 [2]: > 260 µM (inactive)

COc1ccccc1-c1c(C(F)(F)F)oc2cc(OCC(=O)Nc3cc(C)ccc3C)ccc2c1=O
EC50 [4]: > 120 µM (not active)
EC50 [5]: > 120 µM (not active)
EC50 [6]: > 120 µM (not active)

CCOc1ccc(C2C3=C(O)CCCC3=Nc3ccc4ncccc4c32)cc1 (stereo not given)
EC50 [2]: 14.1 µM (active)

CCCCN=C(S)N(Cc1ccco1)Cc1cc2cc3c(cc2nc1O)OCCO3
EC50 [2]: > 260 µM (inactive)

Cc1cc(OCc2cc(C(=O)N3CCC(Oc4cccnc4)CC3)no2)cc(C)c1Cl
AC50 [1]: 7.55 µM (active)

CCc1cc(CNC(=O)c2ccc3nc(Cc4ccc(OC)c(OC)c4)oc3c2)on1
AC50 (INS1): 3.62 µM (active)

Cc1ccc(-n2c(SCC(=O)Nc3cc(S(=O)(=O)N4CCOCC4)ccc3Cl)nc3ccccc3c2=O)cc1
EC50 [2]: > 260 µM (inactive)

CC/C(C)=N\N=C\c1c(O)n(CC)c2cc(C3=NNC(=O)CC3)ccc12
EC50 [7]: > 112 µM (not active)
EC50 [8]: 6.14 µM (active)
IC50 (H9c2): 11.9 µM (active)

CC1CCN(Cc2c(C(=O)N/N=C/c3ccc(C(C)(C)C)cc3)nnn2-c2nonc2N)CC1
EC50 [4]: 9.56 µM (active)
EC50 [5]: 14.1 µM (active)
EC50 [6]: > 120 µM (not active)

Cc1onc(-c2ccccc2)c1C(=O)N/N=C/c1cccc(O)c1
EC50 [2]: > 260 µM (inactive)

COC(=O)/C(=C\Nc1ccccc1N)c1ncc(C(F)(F)F)cc1Cl
EC50 [2]: > 260 µM (inactive)

CCOC(=O)C1=C(C)N=c2s/c(=C\C(=O)OC)c(=O)n2C1c1ccc(OC)cc1 (stereo not given)
EC50 [2]: 10.1 µM (active)

COc1ccc(/C=N/NC(=O)C2C3CCCCC32)cc1OC (stereo not given)
EC50 [4]: > 120 µM (not active)
EC50 [5]: > 120 µM (not active)
EC50 [6]: 67.5 µM (active)

From ChEMBL document CHEMBL1201862, “PubChem BioAssay data set” (2004)
